Patent US12152057B2, “Fusion proteins for inhibiting angiogenesis” (priority 2015, dated 2024)

Legend:
[1] = system: VEGF-induced leakage in Dutch Belted Rabbits; assay: VEGF-induced retinal leakage in Dutch Belted rabbits (Example 8); assay type: in vivo; conditions: FA scale 0 (normal) to 4 (severe)
Experimental: Fusion proteins of the invention were tested in an in vivo model of vascular permeability to determine their efficacy in preventing vascular leakage. In this model, VEGF was intravitreally injected to the vitreous of rabbit eyes to induce uncontrolled retinal leakage. Aflibercept (Eylea®, Regeneron), a recombinant fusion protein consisting of portions of human VEGFR1 and VEGFR2 fused to the Fc portion of human IgG1, and bevacizumab (Avastin®, Roche), a recombinant humanized monoclonal antibody that blocks angiogenesis by inhibiting VEGF-A were included as Positive Controls 2 and 6, respectively.
Dutch Belted rabbits were anesthetized using isoflurane (3-5%), and their eyes were treated with ophthalmic Betadine solution. The rabbits' eyes were then washed with sterile saline, and lidocaine hydrochloride (2% injectable) or proparacaine (0.5%) was applied to the ocular surface.
On Day 1, Dutch Belted rabbits were intravitreally injected with fusion proteins of the invention, vehicle (negative) control, or reference (positive) controls at predetermined doses using a BD 300 μL insulin syringe (31 ga× 5/16 inch). […]
Signs of ocular irritation were scored using the Draize scoring system prior to fusion protein dosing, VEGF induction, and assessments. […]

[2] = system: VEGF-induced leakage in Dutch Belted Rabbits; assay: Dose-response VEGF-induced retinal leakage in Dutch Belted rabbits (Example 9); assay type: in vivo; conditions: FA scale 0 (normal) to 4 (severe)
Experimental: Fusion proteins of the invention were tested in an in vivo model of retinal vascular permeability at varying doses to determine their dose-response effectiveness in preventing vascular leakage. In this model, human VEGF165 was intravitreally injected to the vitreous of rabbit eyes to induce retinal leakage.
On Day 1, Dutch Belted rabbits were intravitreally injected with Fusion Protein 1 according to an embodiment of the invention at various doses, vehicle (negative) control, or reference (positive) controls. Vascular leakage was induced by injecting exogenous VEGF165 into the same eyes on Day 3.
FAs were conducted on all dosage groups 3 days after the VEGF-induction (Day 6) to assess leakiness and tortuosity using a scale from 0 (normal) to 4 (severe).
Signs of ocular irritation were scored using the Draize scoring system prior to fusion protein dosing, VEGF induction, and assessments. According to the Draize analysis, all of the rabbit eyes were normal prior to the initiation of dosing. […] There were no drug-related findings evident during the course of the study.

human VEGF165 = target: T1, human VEGF165 (Homo sapiens, UniProt P15692); assay: Direct binding ELISA to human VEGF165; conditions: coated VEGF165 1 μg/mL, read-out: EC50 (nM), binding affinity to VEGF165
T1 sequence (P15692 27-191 isoform P15692-4): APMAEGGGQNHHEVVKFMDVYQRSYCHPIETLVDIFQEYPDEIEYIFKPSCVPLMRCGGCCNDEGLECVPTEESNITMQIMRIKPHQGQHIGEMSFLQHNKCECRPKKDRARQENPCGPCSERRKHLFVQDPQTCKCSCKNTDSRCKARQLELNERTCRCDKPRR
Experimental: A direct binding enzyme-linked immunosorbent assay (ELISA) was used to measure the binding affinity of fusion proteins of the invention to human VEGF165, a splice variant of VEGF-A.
100 μL of a coating solution (1 μg/mL VEGF165 in 1× phosphate buffered saline (PBS), pH 7.2) were added to each well of a 96-well ELISA plate, and the plate was incubated overnight at 4° C. The wells were washed twice with 400 μL of 1×PBS buffer, and excess liquid was carefully removed with a paper towel.
400 μL of a blocking solution (5 g non-fat skim milk in 100 mL 1×PBS) were added to each well, and the plate was incubated at room temperature for 1 hour. The wells were washed twice with 1×PBS buffer.
Fusion protein and control samples were serially diluted three-fold in blocking solution, with a highest protein concentration of 10 nM. 100 μL of the serially diluted samples were added to each well. The plate was covered and incubated on a plate shaker (˜100 rpm) for 1 hour at room temperature. The wells were washed three times with wash buffer (1×PBS, 0.05% Tween-20). […]
(§1) The optical density (OD) of each well was determined using an ELISA plate reader at an absorbance wavelength of 450 nm. The absorbance was plotted against the protein concentration of the fusion protein or the control, and the concentration at which the signal was half the maximal effective concentration (EC50) was determined.

[3] = system: human umbilical vein endothelial cell (HUVEC); assay: VEGF165-induced HUVEC proliferation assay (MTS); assay type: cell-based; conditions: VEGF165 8 ng/mL, 72 hours, read-out: IC50 (nM), inhibition of cell proliferation
Experimental: A human umbilical vein endothelial cell (HUVEC) proliferation assay was carried out to test the functionality of the fusion proteins of the invention. A commercially available VEGF Trap, aflibercept (Eylea®, Regeneron), was included as Positive Control 2.
100 μL of a coating solution (1% gelatin in double distilled water) were added to each well of a 96-well ELISA plate, and the plate was incubated for 2 hours or overnight at 37° C. The wells were washed twice with 1×PBS buffer.
3500 counts of human umbilical vein endothelial cells in endothelial cell growth medium were added to each well, and the plate was incubated overnight at 37° C.
Fusion protein samples were diluted in assay buffer (Medium-199 1× Earle's Salts, 10% fetal bovine serum, 10 mM HEPES, lx antibiotic/antimycotic), with a highest protein concentration of 300 nM. The fusion protein samples were mixed with VEGF165 (8 ng/mL), and the mixtures were incubated overnight at room temperature. The wells were then washed with 200 μL of 1×PBS.
100 μL of the VEGF165/sample mixture were added to each well, and the plates were incubated for 72 hours at 37° C. with 5% CO2. […]
The OD of each well was determined using an ELISA plate reader at an absorbance wavelength of 490 nm. […]

HUVECs = assay: HUVEC tube formation on matrigel; assay type: cell-based; conditions: Homo sapiens, 18-hour incubation, read-out: IC50 (μM), inhibition of tube formation
Experimental: HUVECs (1.5×10^4 cells/well) were placed in a 96-well matrigel-coated plate. Six doses of Fusion Protein 1 (0.1 μM, 0.3 μM, 1 μM, 3 μM, 10 μM, and 30 μM) and vehicle were added to each well in growth media under an atmosphere of 5% CO2 at 37° C. After an 18-hour incubation period, morphology of the endothelial cell tubes, which resemble a capillary-like network, were evaluated by photomicroscopy. Disruption (anti-angiogenesis) of total tube length was measured from each photograph and determined relative to the vehicle control group. […] Suramin was used as an anti-angiogenic positive control (Positive Control 5) for all studies.

integrin αvβ3 = integrin αvβ3 (Homo sapiens, UniProt P05106+P06756); assay: Competitive binding ELISA of soluble integrin αvβ3 to vitronectin; conditions: vitronectin-coated plate
integrin αvβ3, sequence (P06756 31-889 limits assumed): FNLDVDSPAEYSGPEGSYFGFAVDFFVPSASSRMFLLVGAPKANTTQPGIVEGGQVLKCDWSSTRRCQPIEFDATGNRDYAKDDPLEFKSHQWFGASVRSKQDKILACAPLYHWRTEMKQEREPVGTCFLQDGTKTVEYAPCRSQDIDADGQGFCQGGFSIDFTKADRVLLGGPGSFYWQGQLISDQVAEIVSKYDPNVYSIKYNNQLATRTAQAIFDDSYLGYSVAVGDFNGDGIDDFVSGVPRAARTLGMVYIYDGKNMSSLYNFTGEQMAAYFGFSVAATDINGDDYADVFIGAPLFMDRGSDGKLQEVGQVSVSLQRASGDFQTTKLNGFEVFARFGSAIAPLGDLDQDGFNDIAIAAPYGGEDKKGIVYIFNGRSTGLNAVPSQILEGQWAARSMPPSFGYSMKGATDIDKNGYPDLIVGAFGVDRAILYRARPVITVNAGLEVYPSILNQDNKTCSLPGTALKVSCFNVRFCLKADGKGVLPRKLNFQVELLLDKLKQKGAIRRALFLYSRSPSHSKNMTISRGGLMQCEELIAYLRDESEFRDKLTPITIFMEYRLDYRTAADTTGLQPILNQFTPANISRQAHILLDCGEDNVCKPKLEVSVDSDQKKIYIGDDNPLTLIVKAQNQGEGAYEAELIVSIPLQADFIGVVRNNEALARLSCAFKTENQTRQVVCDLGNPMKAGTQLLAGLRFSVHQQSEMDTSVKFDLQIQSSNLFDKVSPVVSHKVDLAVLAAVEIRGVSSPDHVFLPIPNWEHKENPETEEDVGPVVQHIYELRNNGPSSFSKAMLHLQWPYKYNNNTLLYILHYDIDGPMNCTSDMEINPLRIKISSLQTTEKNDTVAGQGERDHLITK
integrin αvβ3, sequence (P06756 891-992 limits assumed): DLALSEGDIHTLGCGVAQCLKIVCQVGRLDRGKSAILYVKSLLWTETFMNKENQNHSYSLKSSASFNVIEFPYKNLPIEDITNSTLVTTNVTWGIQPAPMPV
integrin αvβ3, sequence (P05106 27-718 limits assumed): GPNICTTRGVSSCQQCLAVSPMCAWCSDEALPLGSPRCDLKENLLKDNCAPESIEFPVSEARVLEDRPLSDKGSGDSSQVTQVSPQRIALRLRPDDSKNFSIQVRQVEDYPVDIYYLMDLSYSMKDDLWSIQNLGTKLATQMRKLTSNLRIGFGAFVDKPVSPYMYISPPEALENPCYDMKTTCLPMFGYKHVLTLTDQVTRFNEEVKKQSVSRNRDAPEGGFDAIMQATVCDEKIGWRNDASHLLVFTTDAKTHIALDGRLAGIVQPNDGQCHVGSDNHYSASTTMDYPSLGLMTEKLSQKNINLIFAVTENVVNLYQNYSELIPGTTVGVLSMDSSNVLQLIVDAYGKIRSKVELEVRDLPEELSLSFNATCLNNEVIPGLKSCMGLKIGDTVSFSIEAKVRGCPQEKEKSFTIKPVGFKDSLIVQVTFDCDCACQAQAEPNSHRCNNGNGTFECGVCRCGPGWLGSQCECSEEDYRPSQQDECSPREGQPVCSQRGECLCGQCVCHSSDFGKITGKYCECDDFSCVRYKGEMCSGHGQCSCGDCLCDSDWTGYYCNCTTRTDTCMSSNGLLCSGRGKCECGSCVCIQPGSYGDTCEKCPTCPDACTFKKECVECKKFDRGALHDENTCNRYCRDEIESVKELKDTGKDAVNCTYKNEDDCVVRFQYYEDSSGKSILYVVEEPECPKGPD
Experimental: The competitive binding was used to measure the binding affinity of Fusion Protein 1 of the invention to integrin αvβ3.
1 μg/mL victronectin dissolved in coating solution were added to each well of a 96-well ELISA plate, and the plate was incubated overnight at 4° C. The wells were washed twice with PBS buffer, and excess liquid was carefully removed with a paper towel.
Blocking solution (5 g non-fat skim milk in 100 mL 1×PBS) were added to each well, and the plate was incubated at room temperature for 1 hour. The wells were washed twice with 1×PBS buffer.
One hundred microliters […] of the serially diluted samples were added to each well. The plate was covered and incubated on a plate shaker (˜100 rpm) for 1 hour at room temperature. The wells were washed three times with wash buffer (1×PBS, 0.05% Tween-20).
Diluted primary anti-integrin αv antibody was added and incubated, then washed. Horseradish peroxidase-conjugated goat anti-human IgG Fc specific antibodies in blocking solution were added to each well. […]
as §1, with “inhibition” for “effective”, “(IC50)” for “(EC50)”

[4] = system: integrin αvβ3 (CHO-αvβ3 cells); assay: Adhesion of αvβ3-overexpressing CHO cells to fibrinogen; assay type: cell-based; conditions: CHO-αvβ3 cell adhesion to fibrinogen
Experimental: (§2) The adhesion of αvβ3-overexpressing CHO cells to fibrinogen and α5β1-expressing K562 cells to fibronectin were evaluated in the presence of fusion proteins.
(§3) 96-well Immulon-2 microtiter plates (Costar, Corning, NY) were coated with 100 μL of phosphate-buffered saline (PBS: 10 mM phosphate buffer, 0.15 M NaCl, pH 7.4) containing substrates at a concentration of 50-500 nM, and incubated overnight at 4° C. The substrates and their coating concentrations were fibrinogen (Fg) at 200 μg/mL and fibronectin (Fn) at 25 μg/mL. Non-specific protein binding sites were blocked by incubating each well with 200 μL of heat-denatured 1% bovine serum albumin (BSA) (Calbiochem) at room temperature for 1.5 hours. The heat-denatured BSA was discarded and each well was washed twice with 200 μL of PBS.
(§4) CHO cells that expressed the integrin αvβ3 (CHO-αvβ3) from the same source of Patent Application No. PCT/US2015/46322 were maintained in DMEM. Human erythroleukemia K562 was maintained as written in Patent Application No. PCT/US2015/46322 from ATCC and cultured in Roswell Park Memorial Institute (RPMI)-1640 medium containing 5% FCS. […] Bound cells were quantified by crystal violet staining. […] The resulting absorbance was read at 600 nm and the readings were correlated with the number of adhering cells. […]

[5] = target: T2, integrin α5β1 (K562 cells) (Homo sapiens, UniProt P05556+P08648); assay: Adhesion of α5β1-expressing K562 cells to fibronectin; assay type: cell-based; conditions: K562 cell adhesion to fibronectin
T2 construct: α5β1-expressing K562 cells to fibronectin; host or cells: K562 human erythroleukemia cells
T2 sequence (P08648 42-894 limits assumed): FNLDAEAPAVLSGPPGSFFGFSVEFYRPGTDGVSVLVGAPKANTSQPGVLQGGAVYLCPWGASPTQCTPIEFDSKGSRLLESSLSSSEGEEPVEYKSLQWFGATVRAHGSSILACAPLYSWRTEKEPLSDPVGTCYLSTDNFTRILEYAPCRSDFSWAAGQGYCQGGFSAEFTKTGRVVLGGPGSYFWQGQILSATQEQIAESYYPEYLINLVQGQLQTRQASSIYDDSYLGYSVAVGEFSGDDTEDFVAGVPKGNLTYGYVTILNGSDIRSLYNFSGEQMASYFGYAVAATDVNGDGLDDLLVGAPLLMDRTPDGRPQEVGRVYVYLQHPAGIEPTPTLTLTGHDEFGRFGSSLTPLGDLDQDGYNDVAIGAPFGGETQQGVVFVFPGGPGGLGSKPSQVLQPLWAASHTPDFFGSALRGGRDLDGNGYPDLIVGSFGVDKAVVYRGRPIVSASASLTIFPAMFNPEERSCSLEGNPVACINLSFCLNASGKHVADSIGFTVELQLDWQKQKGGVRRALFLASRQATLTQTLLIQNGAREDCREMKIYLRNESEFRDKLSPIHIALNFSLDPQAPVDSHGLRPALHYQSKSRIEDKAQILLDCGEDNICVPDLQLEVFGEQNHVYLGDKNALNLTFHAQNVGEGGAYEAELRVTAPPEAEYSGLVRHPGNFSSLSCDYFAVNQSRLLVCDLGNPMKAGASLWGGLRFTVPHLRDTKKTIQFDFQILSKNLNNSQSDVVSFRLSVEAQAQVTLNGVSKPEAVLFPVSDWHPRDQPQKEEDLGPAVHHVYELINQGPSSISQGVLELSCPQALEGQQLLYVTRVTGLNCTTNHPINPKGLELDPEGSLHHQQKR
T2 sequence (P08648 895-1049 limits assumed): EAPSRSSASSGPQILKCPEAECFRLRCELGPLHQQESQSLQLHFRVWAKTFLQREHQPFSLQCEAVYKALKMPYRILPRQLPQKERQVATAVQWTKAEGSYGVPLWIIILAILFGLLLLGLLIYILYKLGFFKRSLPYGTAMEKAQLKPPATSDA
T2 sequence (P05556 21-798): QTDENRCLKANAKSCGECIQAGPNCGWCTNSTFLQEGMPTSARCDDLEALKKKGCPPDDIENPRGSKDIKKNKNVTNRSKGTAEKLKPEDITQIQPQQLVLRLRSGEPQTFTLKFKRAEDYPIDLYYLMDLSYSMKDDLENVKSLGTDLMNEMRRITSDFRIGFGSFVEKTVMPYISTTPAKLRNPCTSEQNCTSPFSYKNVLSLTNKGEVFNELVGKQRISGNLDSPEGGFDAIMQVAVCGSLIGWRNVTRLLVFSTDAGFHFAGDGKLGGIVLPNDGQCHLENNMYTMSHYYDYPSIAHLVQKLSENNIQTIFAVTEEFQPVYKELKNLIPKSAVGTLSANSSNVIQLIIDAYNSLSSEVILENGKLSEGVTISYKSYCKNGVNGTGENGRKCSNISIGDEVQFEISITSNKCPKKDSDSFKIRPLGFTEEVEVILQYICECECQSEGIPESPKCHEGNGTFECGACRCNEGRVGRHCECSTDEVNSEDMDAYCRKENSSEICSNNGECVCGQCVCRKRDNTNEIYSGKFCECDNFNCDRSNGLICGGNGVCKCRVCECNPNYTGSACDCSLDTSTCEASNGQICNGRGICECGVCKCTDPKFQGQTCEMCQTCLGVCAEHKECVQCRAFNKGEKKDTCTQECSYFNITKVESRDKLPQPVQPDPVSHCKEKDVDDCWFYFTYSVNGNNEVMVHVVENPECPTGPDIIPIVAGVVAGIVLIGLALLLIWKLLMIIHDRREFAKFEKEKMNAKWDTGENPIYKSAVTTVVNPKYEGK
Experimental: as §2, §3, §4

bevacizumab [Positive Control 6] was tested, and the “Day 6 Mean Leakage Score” value ([1]; Example 8, intravitreal dose 1250 μg) was 0.25 and the “Day 6 Mean Leakage Score” value ([2]; Example 9, intravitreal dose 1250 μg) was 0.17.
aflibercept [Positive Control 2] was tested, and the EC50 (human VEGF165) was 0.088 to 0.195 nM, the IC50 [3] was 0.026 to 0.136 nM and the “Day 6 Mean Leakage Score” value ([1]; Example 8, intravitreal dose 625 μg) was 0. The “Day 6 Mean Leakage Score” value ([2]; Example 9, intravitreal dose 625 μg) was 0.
`Cc1ccc(C(=O)Nc2ccc(S(=O)(=O)O)c3cc(S(=O)(=O)O)cc(S(=O)(=O)O)c23)cc1NC(=O)c1cccc(NC(=O)Nc2cccc(C(=O)Nc3cc(C(=O)Nc4ccc(S(=O)(=O)O)c5cc(S(=O)(=O)O)cc(S(=O)(=O)O)c45)ccc3C)c2)c1` [Positive Control 5, Suramin] was tested, and the IC50 (HUVECs) was 15.8 µM.
In the case of Rhodostomin [Positive Control 3], the IC50 (integrin αvβ3) is reported as 2.6 to 3.2 nM, the IC50 [4] is reported as 24.7 nM and the IC50 [5] is reported as 252 nM.
